The source of these data is patent US12441719B2, “Inhibitors of SARM1” (Disarm Therapeutics, Inc., priority 2019, dated 2025).

The first assay has as its target T1, SARM1 (Homo sapiens, UniProt Q6SZW1).
T1 construct: AviTag […]; made in house; host or cells: NRK1-HEK293T cells, transiently transfected; the clarified sonicated lysate was used without purification
T1 sequence (Q6SZW1 with tags, fused parts or gaps): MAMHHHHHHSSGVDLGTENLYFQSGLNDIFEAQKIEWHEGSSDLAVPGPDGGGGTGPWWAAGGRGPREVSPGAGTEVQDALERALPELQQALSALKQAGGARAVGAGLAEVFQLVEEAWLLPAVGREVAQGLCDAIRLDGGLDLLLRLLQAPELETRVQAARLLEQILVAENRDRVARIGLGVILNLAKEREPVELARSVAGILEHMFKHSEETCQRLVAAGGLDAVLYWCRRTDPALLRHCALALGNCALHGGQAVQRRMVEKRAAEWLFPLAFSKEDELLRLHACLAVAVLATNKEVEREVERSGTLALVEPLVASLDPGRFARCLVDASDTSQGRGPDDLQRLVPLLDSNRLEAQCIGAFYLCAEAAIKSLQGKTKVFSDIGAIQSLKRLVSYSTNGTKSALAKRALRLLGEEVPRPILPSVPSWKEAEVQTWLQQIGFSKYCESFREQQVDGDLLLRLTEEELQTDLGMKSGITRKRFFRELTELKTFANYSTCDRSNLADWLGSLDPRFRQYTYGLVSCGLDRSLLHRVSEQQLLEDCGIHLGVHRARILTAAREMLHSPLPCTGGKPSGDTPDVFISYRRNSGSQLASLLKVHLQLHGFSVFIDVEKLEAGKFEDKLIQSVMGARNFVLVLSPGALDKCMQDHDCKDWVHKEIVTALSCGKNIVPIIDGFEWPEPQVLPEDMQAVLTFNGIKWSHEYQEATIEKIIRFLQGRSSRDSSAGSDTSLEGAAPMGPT
As to the kind of experiment: ARM-SAM-TIR SARM1 IC50 assay (NADase activity, NAD+ cleavage). Format: biochemical.
Conditions: not given
The source says: This Example describes an assay of ARM-SAM-TTR NADase activity and use of this assay to measure the efficacy of compounds of Formula I or Formula II to block SARM1 mediated NAD+ cleavage. This assay is optimized in such a way as to characterize the efficacy of the compounds in Formula I or Formula II to inhibit SARM1 activity and to calculate an IC50 value for each compound. This assay makes use of full length SARI, which encompasses the ARM, SAM and TTR domains.
Preparation of ARM-SAM-TIR Lysate (STL)
NRK1-HEK293T cells were seeded onto 150 cm^2 plates at 20×10^6 cells per plate. The next day, the cells were transfected with 15 μg ARM-SAM-TIR expression plasmid, SEQ ID NO: 1.
The cultures were supplemented with 1 mM NR at time of transfection to minimize toxicity from ARM-SAM-TIR overexpression. Forty-eight hours after transfection, cells were harvested, pelleted by centrifugation at 1,000 rpm (Sorvall ST 16R centrifuge, Thermo Fisher), and washed once with cold PBS (0.01 M phosphate buffered saline NaCl 0.138 M; KCl 0.0027 M; pH 7.4). The cells were resuspended in PBS with protease inhibitors (cOmplete™ protease inhibitor cocktail, Roche product #11873580001) and cell lysates were prepared by sonication (Branson Sonifer 450, output=3, 20 episodes of stroke). The lysates were centrifuged (12,000×g for 10 min at 4° C.) to remove cell debris and the supernatants (containing ARM-SAM-TIR protein) were stored at −80° C. for later use in the in vitro ARM-SAM-TIR NADase assay (see below). Protein concentration was determined by the Bicinchoninic (BCA) method and used to normalize lysate concentrations.
ARM-SAM-TIR IC50 Assay of Formula I or Formula II Compounds.
The enzymatic assay was performed in a 384-well polypropylene plate in Dulbecco's PBS buffer in a final assay volume of 20 μL. ARM-SAM-TIR lysate with a final concentration of 5 μg/mL was pre-incubated with the respective compound at 1% DMSO final assay concentration over 2 h at room temperature. The reaction was initiated by addition of 5 μM final assay concentration of NAD+ as substrate. After a 2 hr room temperature incubation, the reaction was terminated with 40 μL of stop solution of 7.5% trichloroactetic acid in acetonitrile. The NAD+ and ADPR concentrations were analyzed by a RapidFire High Throughput Mass Spectrometry System (Agilent Technologies, Santa Clara, CA) using an API4000 triple quadrupole mass spectrometer (AB Sciex Framingham, MA).
In general, IC50 refers to the concentration that gives 50% inhibition. Regarding `N#Cc1cc(N2CCNCC2)nc2ccc(Cl)cc12` [Example 16], the IC50 is above 30 µM.

Still in this assay, the particulars now being: ARM-SAM-TIR lysate 5 μg/mL from NRK1-HEK293T cells; 2 h pre-incubation with compound, 5 μM NAD+, 2 hr room temperature; NAD+ and ADPR by RapidFire mass spectrometry; read-out: SARM1 IC50.
As to `N#Cc1cc(N2CCC(NCCO)CC2)nc2ccc(Cl)cc12` [Example 1], the IC50 fell in the range of 5 to 15 µM.
For the compound `OCCNC1CCN(c2ccc3cc(Cl)ccc3n2)CC1` [Example 2], the IC50 is above 30 µM.
The same measure, in the same setting: under `N#Cc1cc(N2CCC(N)CC2)nc2ccc(Cl)cc12` [Example 3] stands 5 to 15 µM; under `N#Cc1cc(N2CCCCC2)nc2ccc(Cl)cc12` [Example 4], below 5 µM; under `CN(C)c1cc(C#N)c2cc(Cl)ccc2n1` [Example 5], below 5 µM.
As for `NC(=O)c1cc(N2CCC(NCCO)CC2)nc2ccc(Cl)cc12` [Example 6], the IC50 was above 30 µM.
The same measure, in the same setting: under `N#Cc1cc(N2CCC(NCCO)CC2)nc2ccccc12` [Example 8] stands above 30 µM; under `Cc1cc(N2CCC(NCCO)CC2)nc2ccc(Cl)cc12` [Example 9], above 30 µM; under `N#Cc1cc(N2CCCC2)nc2ccc(Cl)cc12` [Example 10], below 5 µM.
On the same count and under the same terms, under `N#Cc1cc(N2CC[C@@H](O)C2)nc2ccc(Cl)cc12` [Example 11] stands below 5 µM; under `N#Cc1cc(N2CC[C@H](O)C2)nc2ccc(Cl)cc12` [Example 12], below 5 µM.
With `N#Cc1cc(NCC2CC2)nc2ccc(Cl)cc12` [Example 13], the IC50 was below 5 µM.
Same read-out and setting: under `COc1cc(C#N)c2cc(Cl)ccc2n1` [Example 14] stands below 5 µM; under `N#Cc1cc(Cl)nc2ccc(Cl)cc12` [Example 15], above 30 µM; under `Cc1ccc2nc(N3CCC(N)CC3)cc(C#N)c2c1` [Example 17], 5 to 15 µM.
`Cc1ccc2nc(N3CCCCC3)cc(C#N)c2c1` [Example 18]: the IC50 is 5 to 15 µM.
Still for that read-out and setting: under `Cc1ccc2nc(N(C)C)cc(C#N)c2c1` [Example 19] stands below 5 µM.
Take `N#Cc1cc(N2CCC(N)CC2)nc2ccc(Br)cc12` [Example 20]: the IC50 was below 5 µM.
On the same count and under the same terms, under `N#Cc1cc(N2CCCCC2)nc2ccc(Br)cc12` [Example 21] stands below 5 µM.
Same read-out and setting: the result for `CN(C)c1cc(C#N)c2cc(Br)ccc2n1` [Example 22] reads below 5 µM; that for `N#Cc1cc(N2CCC(N)CC2)nc2ccc(F)cc12` [Example 23], above 30 µM; that for `N#Cc1cc(N2CCCCC2)nc2ccc(F)cc12` [Example 24], below 5 µM.
Still for that read-out and setting: under `CN(C)c1cc(C#N)c2cc(F)ccc2n1` [Example 25] stands 5 to 15 µM; under `N#Cc1cc(N2CCCCC2)nc2cc(Cl)ccc12` [Example 26], below 5 µM; under `CN(C)c1cc(C#N)c2ccc(Cl)cc2n1` [Example 27], below 5 µM.
Consider `Cc1cnc(CNc2cc(C#N)c3cc(Cl)ccc3n2)o1` [Example 28], for which the IC50 is above 30 µM.
Same read-out and setting: under `COCCNC(=O)CNc1cc(C#N)c2cc(Cl)ccc2n1` [Example 29] stands 15 to 30 µM; under `N#Cc1cc(NCC(O)c2ccco2)nc2ccc(Cl)cc12` (centres unmarked) [Example 30], 5 to 15 µM.
`N#Cc1cc(NC2CCCCNC2=O)nc2ccc(Cl)cc12` (centres unmarked) [Example 31]: the IC50 was below 5 µM.
Same read-out and setting: under `Cn1c(CNc2cc(C#N)c3cc(Cl)ccc3n2)nc2cccnc21` [Example 32] stands above 30 µM.
As to `N#Cc1cc(NC(CCO)C2CCOCC2)nc2ccc(Cl)cc12` (centres unmarked) [Example 33], the IC50 was in the range of 5 to 15 µM.
Same read-out and setting: the result for `N#Cc1cc(N2CC(CO)C2)nc2ccc(Cl)cc12` [Example 34] reads 5 to 15 µM.
On the same count and under the same terms, the result for `CC(=O)N1CCN(c2cc(C#N)c3cc(Cl)ccc3n2)CC1` [Example 35] reads below 5 µM; that for `CC1CC(CNc2cc(C#N)c3cc(Cl)ccc3n2)CCO1` (centres unmarked) [Example 36], below 5 µM; that for `N#Cc1cc(NC2CCCN(C(N)=O)C2)nc2ccc(Cl)cc12` (centres unmarked) [Example 37], below 5 µM.
With `CC(O)CNc1cc(C#N)c2cc(Cl)ccc2n1` (centres unmarked) [Example 38], the IC50 is 15 to 30 µM.
Still for that read-out and setting: under `CNC(=O)C(CO)Nc1cc(C#N)c2cc(Cl)ccc2n1` (centres unmarked) [Example 39] stands above 30 µM.
For the compound `N#Cc1cc(N2CCCC(CCC(N)=O)C2)nc2ccc(Cl)cc12` (centres unmarked) [Example 40], the IC50 was below 5 µM.
As to `CN(C)C(=O)NCCNc1cc(C#N)c2cc(Cl)ccc2n1` [Example 41], the IC50 was 15 to 30 µM.
Same read-out and setting: the result for `N#Cc1cc(NCc2ccccn2)nc2ccc(Cl)cc12` [Example 42] reads below 5 µM.
The same measure, in the same setting: under `N#Cc1cc(N2CCN(c3ncc[nH]3)CC2)nc2ccc(Cl)cc12` [Example 43] stands 15 to 30 µM; under `N#Cc1cc(NC2CCN(Cc3cccnc3)CC2)nc2ccc(Cl)cc12` [Example 44], below 5 µM; under `N#Cc1cc(NCc2cccc(C(N)=O)c2)nc2ccc(Cl)cc12` [Example 45], below 5 µM.
On the same count and under the same terms, the result for `CN1CCC(Nc2cc(C#N)c3cc(Cl)ccc3n2)C1=O` (centres unmarked) [Example 46] reads below 5 µM; that for `CS(=O)(=O)C1CCN(c2cc(C#N)c3cc(Cl)ccc3n2)C1` (centres unmarked) [Example 47], below 5 µM; that for `CO[C@@H]1CCN(c2cc(C#N)c3cc(Cl)ccc3n2)C1` [Example 48], below 5 µM.
With `CO[C@H]1CCN(c2cc(C#N)c3cc(Cl)ccc3n2)C1` [Example 49], the IC50 was below 5 µM.
Take `CNc1cc(C#N)c2cc(Cl)ccc2n1` [Example 50]: the IC50 was below 5 µM.
As for `N#Cc1cc(NC2CC2)nc2ccc(Cl)cc12` [Example 51], the half-maximal inhibitory concentration (IC50) was above 30 µM.
On the same count and under the same terms, the result for `CN1CCN(c2cc(C#N)c3cc(Cl)ccc3n2)CC1` [Example 52] reads above 30 µM; that for `CCN1CCN(c2cc(C#N)c3cc(Cl)ccc3n2)CC1` [Example 53], above 30 µM; that for `COC1CCN(c2cc(C#N)c3cc(Cl)ccc3n2)CC1` [Example 54], below 5 µM.
As for `CS(=O)(=O)C1CCN(c2cc(C#N)c3cc(Cl)ccc3n2)CC1` [Example 55], the concentration for half-maximal inhibition (IC50) lay in the range of 5 to 15 µM.
Regarding `N#Cc1cc(N2CCC(C(N)=O)CC2)nc2ccc(Cl)cc12` [Example 56], the IC50 was in the range of 5 to 15 µM.
`CNC(=O)C1CCN(c2cc(C#N)c3cc(Cl)ccc3n2)CC1` [Example 57]: the IC50 was below 5 µM.
For the compound `N#Cc1cc(N2CCC[C@H](N)C2)nc2ccc(Cl)cc12` [Example 58], the IC50 is below 5 µM.
Same read-out and setting: the result for `CS(=O)(=O)C1CCCN(c2cc(C#N)c3cc(Cl)ccc3n2)C1` (centres unmarked) [Example 59] reads below 5 µM; that for `CO[C@@H]1CCCN(c2cc(C#N)c3cc(Cl)ccc3n2)C1` [Example 60], below 5 µM; that for `CO[C@H]1CCCN(c2cc(C#N)c3cc(Cl)ccc3n2)C1` [Example 61], below 5 µM.
Same read-out and setting: the result for `C[C@@H]1CCCN(c2cc(C#N)c3cc(Cl)ccc3n2)C1` [Example 62] reads below 5 µM; that for `C[C@H]1CCCN(c2cc(C#N)c3cc(Cl)ccc3n2)C1` [Example 63], below 5 µM; that for `N#Cc1cc(N2CCC(N)CC2)nc2cc(Cl)ccc12` [Example 64], below 5 µM.
Take `N#Cc1cc(N2CC[C@@H](N)C2)nc2ccc(Cl)cc12` [Example 65]: the IC50 is below 5 µM.
Still for that read-out and setting: under `N#Cc1cc(N2CC[C@H](N)C2)nc2ccc(Cl)cc12` [Example 66] stands below 5 µM.
